From patent US20220323402A1, “TREATMENT, AMELIORATION OR PREVENTION OF A VIRAL INFECTION” (priority 2019, published 2022)

Test system: ZIKV
Assay: Infectious virus particles in supernatants of ZIKV-infected human NPC cells, plaque assay
Type: cell-based, Zika virus
Details: FIG. 13
Description: FIG. 13: Quantification of infectious virus particles in the supernatants of human NPC cells pre-treated with CH2213191 or vehicle-treated using a standard plaque assay in Vero cells. Data represent the mean+s.e.m. from three independent experiments. P values were determined by a one-way ANOVA followed by Tukey's post-hoc test.
HepG2 (ATCC, HB-8065), A549 (ATCC® CCL-185™), HeLa (ATCC, CCL-2) and Vero cells (African green monkey kidney) (ATCC, CCL-81) were grown in Dulbecco's Modified Eagle's medium (DMEM, GIBCO) supplemented with 10% fetal bovine serum, 100 IU/ml of penicillin and 100 ug/ml of streptomycin. HEK-293 cells (ATCC, CRL-1573) and SUM149 cells (Asterand Bioscience, Detroit, Mich.) were grown in DMEM/F12 (GIBCO) supplemented with 10% fetal bovine serum, 100 IU/ml of penicillin and 100 ug/ml of streptomycin. C6/36 mosquito cells from Aedes albopictus were used to generate viral stocks, and were cultured in L-15 medium (Leibovitz) (GIBCO) supplemented with 0.3% tryptose phosphate broth, 0.02% glutamine, 1% MEM non-essential amino acids solution and 10% fetal bovine serum. Human NPCs (Stem Cell Technologies, Catalog #70901) were grown using neural progenitor medium 2 (Stem Cell Technologies). […]

Question: `Cc1ccccc1/N=N/c1ccc(NC(=O)c2ccnn2C)c(C)c1` [CH223191, 2-Methyl-2H-pyrazole-3-carboxylic Acid (2-methyl-4-o-tolylazo-phenyl)-amide] was tested. Which “ZIKV replication in NPCs cultures” value did it give?
Answer: The value was “decreased”.
